Consider 1 molecule from US20060147569A1, “Anti-depression formulations” (priority 2005, published 2006).

Structures are written as SMILES. Structures can show the parent of a compound that is named as a salt.

For one assay, the system named is serum cortisol. Nature of the assay: Serum cortisol level in CMS-treated rats (radioimmunoassay). The class given is in vivo. As to the method: (§1) 3. Administration and Doses • Non CMS-treated Saline group: 10 ml/kg/day. • CMS-treated Saline group: 10 ml/kg/day. • Composition I (200) group: 200 mg/kg/day. • Composition I (150) group: 150 mg/kg/day. • Fluoxetine group (positive control): 10 mg/kg/day.
(§2) Animals therein were divided randomly into the following four subgroups: • (1) Composition I (200) group: received composition I at 200 mg/kg/day; • (2) Composition I (150) group: received composition I at 150 mg/kg/day; • (3) Fluoxetine group: received fluoxetine 10 mg/kg/day; (positive control); • (4) CMS-treated saline group: received saline 10 mL/kg/day. (negative control).
24 h after the last test of sucrose intake, between 10:00 a.m. and 11:00 a.m., all animals were decapitated quickly to get venous blood. Serum was separated by centrifugation at 3000 rpm and stored at −20° C. until assay of cortisol concentration. Brain tissues were rapidly removed on the ice-plate. The tissues were washed with cold saline, blotted dry and stored at −80° C. until assays of monoamine oxidase A and B (MAO-A and MAO-B) activity.
Serum cortisol level was assayed using a radioimmunoassay method following the manufacturer's instructions. (Manufacturer: Bejing Furui Biotechnology Company, P.R. China. Product code: FR-FJ-055).

A further assay has as its system CMS-treated rats. In words: Sucrose intake test in chronic mild stress (CMS) model. In kind it is in vivo. Conditions: for sucrose intake: CMS-treated rats, 10 mg/kg oral daily.
Source text: In the CMS model, rats are exposed sequentially, over a period of weeks, to a variety of mild stressors, and the measure most commonly used to track the effects is a decrease in consumption of a palatable sweet solution. This […] of antidepressants to increase sucrose intake in CMS model of rats. […] These impairments could be reversed by chronic administration of antidepressants such as tricyclic antidepressants, selective serotonin reuptake inhibitors and monoamine oxidase inhibitors. […] (Willner P. 1997)
Male Wistar rats, weighing 180-220 g at the start of the experiment, were used in the experiments. During the one week before experiment, each rat was housed individually in a home cage, and had free access to food and water. They were maintained on a 12 h light/dark cycle under controlled temperature 25±2° C. and tested in the light phase.
as §1
The above substances at various concentrations were dissolved in saline. The volume of the suspension administered was based on body weight measured immediately prior to each dose, respectively. All groups were administered orally for six weeks, once per day. All groups except for Non-CMS-treated saline group received CMS treatment as described below.
All animals were trained to consume 1% (w/v) sucrose solution in water. The training was conducted twice a week for consecutive 3 weeks. In the training, the rats in the home cage were deprived of food and water for 14 hours. After 14 hours, about 30 ml of 1% (w/v) sucrose solution in a pre-weighed bottled was placed in the home cages. 1 hour later, the bottle was taken out from the cage and weighed. The sucrose intake was calculated as follows: […]
Calculation: Weight of Bottle Before Intake (g)—Weight of Bottle After Intake (g)
After three weeks of training, when the sucrose intake of rats was stabilized, the rats started to receive further treatment. During the whole treatment period, the sucrose intakes of rats were monitored once every week from 9:00 a.m. to 10:00 a.m. with the same procedures as described above.
After the three-weeks training, the rats were randomly divided into two groups: the non-CMS treated group and CMS-treated group. The stress group of animals was subjected to the CMS procedure for a period of four consecutive weeks. Each week of stress regime is consisted of six different stress situations. They involved two periods of food and water deprivation, two periods of 45 o cage tilt, two periods of intermittent illumination (lights on and off every 2 h), two periods of soiled cage (200 mL water in sawdust bedding), two periods of paired housing, and two periods of low intensity stroboscopic illumination (150 flashes/min). All of the stressors were 12-14 h of duration and were applied individually and sequentially, day and night.
as §2
The rats in non-CMS treated group received saline solution at 10 mL/kg orally. All administrations were given orally once daily at 10:00 a.m. for consecutive 6 weeks.

For the molecule `CNCCC(Oc1ccc(C(F)(F)F)cc1)c1ccccc1` (stereo not shown) [Fluoxetine, Fluoxetine Hydrochloride], the “effect on serum cortisol levels (in words)” value in the assay with serum cortisol (CMS-treated rats, fluoxetine (10 mg/kg)) was “did not cause any significant alteration”. Moreover, in the assay with serum cortisol (serum of CMS-treated rats, 10 mg/kg oral daily for 6 weeks), the Cortisol level amounted to 28.76 ± 0.56 ng/mL. Besides, the “recovery of the sucrose intake (in words)” value in the assay with CMS-treated rats (CMS rats, fluoxetine-treated (10 mg/kg)) is on record as “not as strong as those treated with Composition (I)”. Moreover, the sucrose intake was 5.3 ± 1.4 g in the assay with CMS-treated rats (week 0 of drug treatment); 5.5 ± 1.3 g with CMS-treated rats (week 1); 5.9 ± 1.4 g in the assay on CMS-treated rats (week 2); 7.3 ± 1.5 g in the assay on CMS-treated rats (week 3); 8.9 ± 1.1 g in the assay with CMS-treated rats (week 4); 10.4 ± 1.3 g in the assay on CMS-treated rats (week 5). The sucrose intake in the assay with CMS-treated rats (week 6) is 13.9 ± 1.3 g.
